Patent US20220160712A1, “METHODS OF TREATING RHEUMATOID ARTHRITIS AND FOR PREDICTING THE RESPONSE TO METHOTREXATE” (CHAN ZUCKERBERG BIOHUB, INC., priority 2020, published 2022)

Test system: B. theta and C. asparagiforme
Assay: Untargeted metabolomics of in vitro cultures
Type: cell-based, Bacteroides thetaiotaomicron; Clostridium asparagiforme
Protocol: As described in the in vitro bacterial growth studies, 48-hour overnight cultures were grown in an anaerobic chamber in liquid BHI+for the following isolates: Bacteroidetes thetaiotaomicron and Clostridium asparagiforme. Each subculture was diluted down to an OD600 of 0.08-0.1, which was then further diluted 100-fold, and then used to inoculate a 96-well 2-ml deep well plate with 100 μg/ml MTX (n=6 replicates per isolate) (Sigma, Cat #M9929) or DMSO (n=2 replicates per isolate). After 24 hours, aliquots were removed, centrifuged on a tabletop centrifuge at 4° C. for 5 minutes at ˜2000 rcf, and supernatant was prepared for extraction and untargeted LC-MS as described.
Extraction was done in 96 well plates. In brief, 60 μL of the supernatant from the 96 well culture plate was added to 120 μL of pre-cooled methanol/acetonitrile (1:1, v/v) in a non-sterile 96 well plate. The samples were then incubated at −20° C. for 1 hour. After incubation, samples were mixed at 4° C. at 650 rpm using small block tube shaker. The plates were then centrifuged at 3000 rpm for 10 minutes. After centrifugation, using multi-channel pipette, 80 μL of supernatant from each well was transferred to non-sterile 96 well polypropylene plate and then sealed with pre-slit silicone mat. A 1:1:1 mix of LC-MS grade H2O, LC-MS grade acetonitrile and LC-MS grade methanol was used as blank.
Samples (5 μl) were separated by hydrophilic interaction chromatography HPLC using a Vanquish UHPLC system (Thermo Fisher Scientific, Waltham, MA) with a Waters (Milford, MA) Acquity UPLC BEH Amide Column (2.1×100 mm×1.7 μm particle size) maintained at 65° C. and a 17 minute gradient, at a flow rate of 400 μl/min. […]
The raw data were converted into mzML format using ProteoWizard v3.0. Converted HILIC files were then analyzed using MS-DIAL v4.16 for deconvolution, peak detection, alignment, and identification (Parameters file can be provided upon request). […]

[1] = MTX 100 μg/ml, 24 hours, padj<0.01, two-factor ANOVA with BH correction

In the case of CN(Cc1cnc2nc(N)nc(N)c2n1)c1ccc(C(=O)N[C@@H](CCC(=O)O)C(=O)O)cc1 [MTX, methotrexate], the “levels of AMP, adenine, hypoxanthine and guanine relative to vehicle control” value (C. asparagiforme, 24 hours of treatment, AMP decreased, the rest increased, Wilcoxon rank sum) is reported as “these differences were not statistically significant”, the “number of metabolic features that changed similarly in the two isolates” value [1] is reported as 418 and the “number of metabolic features that differed by species” value [1] is reported as 220.
